Experimental data: patent publication US10487092B2, “Pyrazolopyridinamines as MKNK1 and MKNK2 inhibitors” (BAYER PHARMA AKTIENGESELLSCHAFT, priority 2014, dated 2019)

Molecular target: human full-length MKNK1 (Homo sapiens (Human), UniProt Q9BUB5, T344D)
Assay: MKNK1 kinase high ATP assay (TR-FRET)
Type: biochemical
Settings: not given
Description: MKNK1 Kinase High ATP Assay
MKNK1-inhibitory activity at high ATP of compounds of the present invention after their preincubation with MKNK1 was quantified employing the TR-FRET-based MKNK1 high ATP assay as described in the following paragraphs.
A recombinant fusion protein of Glutathione-S-Transferase (GST, N-terminally) and human full-length MKNK1 (amino acids 1-424 and T344D of accession number BAA 19885.1), expressed in insect cells using baculovirus expression system and purified via glutathione sepharose affinity chromatography, was purchased from Carna Biosciences (product no 02-145) and used as enzyme. As substrate for the kinase reaction the biotinylated peptide biotin-Ahx-IKKRKLTRRKSLKG (SEQ ID NO: 1, C-terminus in amide form) was used, which can be purchased e.g. from the company Biosyntan (Berlin-Buch, Germany).
For the assay 50 nL of a 100 fold concentrated solution of the test compound in DMSO was pipetted into a black low volume 384 well microtiter plate (Greiner Bio-One, Frickenhausen, Germany), 2 μL of a solution of MKNK1 in aqueous assay buffer [50 mM HEPES pH 7.5, 5 mM MgCl2, 1.0 mM dithiothreitol, 0.005% (v/v) Nonidet-P40 (Sigma)] was added and the mixture was incubated for 15 min at 22° C. to allow pre-binding of the test compounds to the enzyme before the start of the kinase reaction. Then the kinase reaction was started by the addition of 3 μL of a solution of adenosine-tri-phosphate (ATP, 3.3 mM=>final conc. in the 5 μL assay volume is 2 mM) and substrate (0.1 μM=>final conc. in the 5 μL assay volume is 0.06 μM) in assay buffer and the resulting mixture was incubated for a reaction time of 30 min at 22° C. The concentration of MKNK1 was adjusted depending of the activity of the enzyme lot and was chosen appropriate to have the assay in the linear range, typical concentrations were in the range of 0.003 μg/mL. The reaction was stopped by the addition of 5 μL of a solution of TR-FRET detection reagents (5 nM streptavidine-XL665 [Cisbio Bioassays, Codolet, France] and 1 nM anti-ribosomal protein S6 (pSer236)-antibody from Invitrogen [#44921G] and 1 nM LANCE EU-W1024 labeled ProteinG [Perkin-Elmer, product no. AD0071]) in an aqueous EDTA-solution (100 mM EDTA, 0.1% (w/v) bovine serum albumin in 50 mM HEPES pH 7.5).
The resulting mixture was incubated for 1 h at 22° C. to allow the formation of complex between the phosphorylated biotinylated peptide and the detection reagents. Subsequently the amount of phosphorylated substrate was evaluated by measurement of the resonance energy transfer from the Eu-chelate to the streptavidine-XL. Therefore, the fluorescence emissions at 620 nm and 665 nm after excitation at 350 nm were measured in a TR-FRET reader, e.g. a Rubystar (BMG Labtechnologies, Offenburg, Germany) or a Viewlux (Perkin-Elmer). The ratio of the emissions at 665 nm and at […] was taken as the measure for the amount of phosphorylated substrate. The data were normalised (enzyme reaction without inhibitor=0% inhibition, all other assay components but no enzyme=100% inhibition).

Sequence of human full-length MKNK1 (Q9BUB5 other isoform, or with tags, fused parts or gaps T344D): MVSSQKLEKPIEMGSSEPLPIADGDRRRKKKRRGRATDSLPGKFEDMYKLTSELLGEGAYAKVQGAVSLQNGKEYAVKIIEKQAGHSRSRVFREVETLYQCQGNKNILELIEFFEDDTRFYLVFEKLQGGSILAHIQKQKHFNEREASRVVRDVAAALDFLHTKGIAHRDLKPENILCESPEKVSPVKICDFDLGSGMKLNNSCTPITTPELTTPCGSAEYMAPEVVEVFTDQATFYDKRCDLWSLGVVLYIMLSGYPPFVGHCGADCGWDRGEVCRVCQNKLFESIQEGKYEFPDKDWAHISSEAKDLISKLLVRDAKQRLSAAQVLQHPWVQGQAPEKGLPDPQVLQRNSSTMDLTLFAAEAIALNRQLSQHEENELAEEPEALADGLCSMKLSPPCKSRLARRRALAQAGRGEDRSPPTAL

O=C1CCN(C(=O)[C@H]2CCc3c(sc4ncnc(Nc5ccn6nccc6c5)c34)C2)CC1 [Example 33, 1-{[(7S)-4-(Pyrazolo[1,5-a]pyridin-5-ylamino)-5,6,7,8-tetrahydro[1]benzothieno[2,3-d]pyrimidin-7-yl]carbonyl}piperidin-4-one] gave an IC50 of 96 nM.

Same assay, conditions: high ATP (2 mM), 15 min preincubation with enzyme; read-out: MKNK1 IC50

In order of rising IC50:
1. CN(C)CCN(C)C1CCN(C(=O)[C@H]2CCc3c(sc4ncnc(Nc5ccn6nccc6c5)c34)C2)CC1 [Example 40, (4-{[2-(Dimethylamino)ethyl](methyl)amino}piperidin-1-yl)[(7S)-4-(pyrazolo[1,5-a]pyridin-5-ylamino)-5,6,7,8-tetrahydro[1]benzothieno[2,3-d]pyrimidin-7-yl]methanone]  6 nM
2. N#CC1CN(C(=O)[C@H]2CCc3c(sc4ncnc(Nc5cc6ccnn6cc5Cl)c34)C2)C1 [Example 50, 1-((7S)-4-[(6-Chloropyrazolo[1,5-a]pyridin-5-yl)amino]-5,6,7,8-tetrahydro[1]benzothieno[2,3-d]pyrimidin-7-ylcarbonyl)azetidine-3-carbonitrile]  7 nM
3. CN1C[C@H]2C[C@@H]1CN2C(=O)[C@H]1CCc2c(sc3ncnc(Nc4ccn5nccc5c4)c23)C1 [Example 42, [(1R,4R)-5-Methyl-2,5-diazabicyclo[2.2.1]hept-2-yl][(7S)-4-(pyrazolo[1,5-a]pyridin-5-ylamino)-5,6,7,8-tetrahydro[1]benzothieno[2,3-d]pyrimidin-7-yl]methanone]  11 nM
4. CCN(C)C(=O)[C@H]1CCc2c(sc3ncnc(Nc4cc5ccnn5cc4Cl)c23)C1 [Example 46, (7S)-4-[(6-Chloropyrazolo[1,5-a]pyridin-5-yl)amino]-N-ethyl-N-methyl-5,6,7,8-tetrahydro[1]benzothieno[2,3-d]pyrimidine-7-carboxamide]  11 nM
5. CN(C)C(=O)[C@H]1CCc2c(sc3ncnc(Nc4cc5ccnn5cc4Cl)c23)C1 [Example 45, (7S)-4-[(6-Chloropyrazolo[1,5-a]pyridin-5-yl)amino]-N,N-dimethyl-5,6,7,8-tetrahydro[1]benzothieno[2,3-d]pyrimidine-7-carboxamide]  12 nM
6. CN(C)C(=O)CN(C)C(=O)[C@H]1CCc2c(sc3ncnc(Nc4ccn5nccc5c4)c23)C1 [Example 26, (7S)—N-[2-(Dimethylamino)-2-oxoethyl]-N-methyl-4-(pyrazolo[1,5-a]pyridin-5-ylamino)-5,6,7,8-tetrahydro[1]benzothieno[2,3-d]pyrimidine-7-carboxamide]  14 nM
7. CCCCN(C)C(=O)[C@H]1CCc2c(sc3ncnc(Nc4cc5ccnn5cc4Cl)c23)C1 [Example 49, (7S)—N-Butyl-4-[(6-chloropyrazolo[1,5-a]pyridin-5-yl)amino]-N-methyl-5,6,7,8-tetrahydro[1]benzothieno[2,3-d]pyrimidine-7-carboxamide]  15 nM
8. CC1(O)CN(C(=O)[C@H]2CCc3c(sc4ncnc(Nc5ccn6nccc6c5)c34)C2)C1 [Example 30, (3-Hydroxy-3-methylazetidin-1-yl)[(7S)-4-(pyrazolo[1,5-a]pyridin-5-ylamino)-5,6,7,8-tetrahydro[1]benzothieno[2,3-d]pyrimidin-7-yl]methanone]  16 nM
9. CN(CC(F)F)C(=O)[C@H]1CCc2c(sc3ncnc(Nc4cc5ccnn5cc4Cl)c23)C1 [Example 47, (7S)-4-[(6-Chloropyrazolo[1,5-a]pyridin-5-yl)amino]-N-(2,2-difluoroethyl)-N-methyl-5,6,7,8-tetrahydro[1]benzothieno[2,3-d]pyrimidine-7-carboxamide]  18 nM
10. CN(C)C1CN(C(=O)[C@H]2CCc3c(sc4ncnc(Nc5ccn6nccc6c5)c34)C2)C1 [Example 28, [3-(Dimethylamino)azetidin-1-yl][(7S)-4-(pyrazolo[1,5-a]pyridin-5-ylamino)-5,6,7,8-tetrahydro[1]benzothieno[2,3-d]pyrimidin-7-yl]methanone]  19 nM
11. CN1CCN(C(=O)[C@H]2CCc3c(sc4ncnc(Nc5ccn6nccc6c5)c34)C2)CC1 [Example 29, (4-Methylpiperazin-1-yl)[(7S)-4-(pyrazolo[1,5-a]pyridin-5-ylamino)-5,6,7,8-tetrahydro[1]benzothieno[2,3-d]pyrimidin-7-yl]methanone]  20 nM
12. CN1C[C@@H]2C[C@H]1CN2C(=O)[C@H]1CCc2c(sc3ncnc(Nc4ccn5nccc5c4)c23)C1 [Example 38, [(1S,4S)-5-Methyl-2,5-diazabicyclo[2.2.1]hept-2-yl][(7S)-4-(pyrazolo[1,5-a]pyridin-5-ylamino)-5,6,7,8-tetrahydro[1]benzothieno[2,3-d]pyrimidin-7-yl]methanone]  25 nM
13. CN(C)CCN1CCN(C(=O)[C@H]2CCc3c(sc4ncnc(Nc5ccn6nccc6c5)c34)C2)CC1 [Example 31, {4-[2-(Dimethylamino)ethyl]piperazin-1-yl}[(7S)-4-(pyrazolo[1,5-a]pyridin-5-ylamino)-5,6,7,8-tetrahydro[1]benzothieno[2,3-d]pyrimidin-7-yl]methanone]  26 nM
14. O=C(NCCC(F)(F)F)[C@H]1CCc2c(sc3ncnc(Nc4cc5ccnn5cc4Cl)c23)C1 [Example 43, (7S)-4-[(6-Chloropyrazolo[1,5-a]pyridin-5-yl)amino]-N-(3,3,3-trifluoropropyl)-5,6,7,8-tetrahydro[1]benzothieno[2,3-d]pyrimidine-7-carboxamide]  35 nM
15. CN(CCC(F)(F)F)C(=O)[C@H]1CCc2c(sc3ncnc(Nc4cc5ccnn5cc4Cl)c23)C1 [Example 48, (7S)-4-[(6-Chloropyrazolo[1,5-a]pyridin-5-yl)amino]-N-methyl-N-(3,3,3-trifluoropropyl)-5,6,7,8-tetrahydro[1]benzothieno[2,3-d]pyrimidine-7-carboxamide]  35 nM
16. CC(C)NC(=O)[C@H]1CCc2c(sc3ncnc(Nc4cc5ccnn5cc4Cl)c23)C1 [Example 44, (7S)-4-[(6-Chloropyrazolo[1,5-a]pyridin-5-yl)amino]-N-(propan-2-yl)-5,6,7,8-tetrahydro[1]benzothieno[2,3-d]pyrimidine-7-carboxamide]  54 nM
17. O=C([C@H]1CCc2c(sc3ncnc(Nc4ccn5nccc5c4)c23)C1)N1C[C@H]2C[C@@H]1CO2 [Example 37, (1R,4R)-2-Oxa-5-azabicyclo[2.2.1]hept-5-yl[(7S)-4-(pyrazolo[1,5-a]pyridin-5-ylamino)-5,6,7,8-tetrahydro[1]benzothieno[2,3-d]pyrimidin-7-yl]methanone]  56 nM
18. O=C([C@H]1CCc2c(sc3ncnc(Nc4ccn5nccc5c4)c23)C1)N1CCC(F)(F)C1 [Example 34, (3,3-Difluoropyrrolidin-1-yl)[(7S)-4-(pyrazolo[1,5-a]pyridin-5-ylamino)-5,6,7,8-tetrahydro[1]benzothieno[2,3-d]pyrimidin-7-yl]methanone]  71 nM
19. O=C([C@H]1CCc2c(sc3ncnc(Nc4ccn5nccc5c4)c23)C1)N1CC2(COC2)C1 [Example 35, 2-Oxa-6-azaspiro[3.3]hept-6-yl[(7S)-4-(pyrazolo[1,5-a]pyridin-5-ylamino)-5,6,7,8-tetrahydro[1]benzothieno[2,3-d]pyrimidin-7-yl]methanone]  75 nM
20. O=C([C@H]1CCc2c(sc3ncnc(Nc4ccn5nccc5c4)c23)C1)N1C[C@@H]2C[C@H]1CO2 [Example 36, (1S,4S)-2-Oxa-5-azabicyclo[2.2.1]hept-5-yl[(7S)-4-(pyrazolo[1,5-a]pyridin-5-ylamino)-5,6,7,8-tetrahydro[1]benzothieno[2,3-d]pyrimidin-7-yl]methanone]  91 nM
